Laboratory results taken from patent publication US7790759B2, “Glycyrrhetinic acid-30-amide derivatives and their use” (Tianjin Institute of Pharmaceutical Research, priority 2005, dated 2010).

Legend:
cough = assay: Cough-prevention: ammonia-induced cough; format: in vivo, ICR mice; settings: for Cough occurrence (x ± sd) / Inhibition rate of cough (%): 50 mg/kg intragastric; for Cough occurrence (x ± sd): ammonia 1 h after administration, observed within 5 min, n = 10; for Inhibition rate of cough (%): versus model group
Procedure: Male or female healthy ICR mice, each weighing 18-22 g, were used. They were grouped randomly into model, positive control and test groups based on body weight, with 10 animals for each group. The positive group was treated by codeine phosphate in a dose of 50 mg/kg of body weight.
After fasting for at least 12 h, the animals were intragastrically administrated: the animals in model group are administered only with 1% CMCNa in the same amount. To start the test, 1 h after administration, the mice were placed in a 500 ml container, into which a cotton ball sucking 0.3 ml of ammonia was added to cause coughing. The occurrence of cough was observed within 5 min. Inhibition rate of cough=(the cough occurrence for model group−the cough occurrence for test group)/the cough occurrence for model group×100%. (4) Aldosterone-like Side Effects

writhing response = assay: Analgesic effect: acetic acid-induced writhing response; format: in vivo, ICR mice; settings: 50 mg/kg intragastric; for Writhing occurrence (x ± s): 0.6% acetic acid i.p. 1 h after administration, counted during 15 minutes, n = 10
Procedure: Male or female healthy ICR mice, each weighing 18-22 g, were used. Each mouse was injected intraperitoneally with 0.6% acetic acid in a dose of 0.2 ml one day before the test. The mice with the writhing response occurring in the range of 10-50 times were selected. The selected mice were grouped randomly into model, positive control and test groups based on the occurrence of the writhing response, with 10 animals for each group. The positive group was treated with aspirin in a dose of 50 mg/kg of body weight.
After fasting for at least 12 h, the animals were intragastrically administrated: the animals in model group are administered only with 1% CMCNa in the same amount. 1 h after administration, the mice were intraperitoneally injected with 0.6% acetic acid in a dose of 0.2 ml per animal. After 5 min, the occurrence of the writhing responses for one mouse was recorded during a period of 15 minutes. Based on the occurrence recorded, the inhibition rate of the active ingredient for writhing response was calculated. Inhibition rate=(means of the writhing occurrence for model group−means of the writhing occurrence for test group)/means of writhing occurrence for model group×100%. (3) Cough-prevention

swollen ear model = assay: Anti-inflammatory effect: xylene-induced swollen ear model; format: in vivo, ICR mice; settings: 40 mg/kg, intragastric, xylene on right ear 30 min after administration; weight ratio swollen ear to normal ear; n 8-10
Procedure: Male or female healthy ICR mice, each weighing 18-20 g, were grouped randomly into model, positive control and test groups based on body weight, with 8-10 animals for each group. The positive group was treated by hydrocortisone in a dose of 40 mg/kg of body weight.
The compound of formula I to be tested was administered intragastrically at a concentration of 2 mg/ml in a 1% CMCNa solution, while a 1% CMCNa solution alone was administered to the model group in the same amount. 30 min after administration, 50 μl of xylene solution was added dropwise into the right ear of each mouse to cause an inflammation reaction. 30 min later, the mice were killed by breaking the cervical vertebrae. Both ears were excised immediately from the mices, and punched in the same position with a puncher having a diameter of 0.6 cm. The obtained ear piece was weighed. For each mouse, the weight ratio of swollen ear to normal ear was regarded as an indication for the degree of swelling. Biostatistical analysis was performed using the Student's t test.

Influenza virus A = assay: Influenza virus A-infected mice models; format: in vivo; settings: 100 mg/kg
[1] = system: paracetamol/hepatitis mice models; assay: Liver protection in paracetamol/hepatitis mice models; settings: 100 mg/kg
[2] = Subacute toxicity within one month (death); format: in vivo; settings: 300 mg/kg of body weight for one week
Procedure: (§1) Three compounds of formula I of the invention were selected to examine their subacute toxicity within one month, with dexamethasone and glycyrrhetinic acid as control. […] Furthermore, the level of aldosterone in blood plasma was determined. The level will decrease in a negative feedback way when an agent having aldosterone-like effects is administrated.

aldosterone = format: in vivo; settings: subacute toxicity study
Procedure: as §1

## CC1(C(=O)NCc2cc(-c3ccc(O)cc3)no2)CCC2(C)CCC3(C)C(=CC(=O)C4C5(C)CCC(O)C(C)(C)C5CCC43C)C2C1 (stereo not shown) [Compound G1, N-[(3-p-hydroxylphenyl-isoxazol-5-yl)methyl]-glycyrrhetinamide]
cough
  Cough occurrence (x ± sd): 28.20 ± 15.39
  Inhibition rate of cough (%): −1.44%
Writhing response
  Writhing occurrence (x ± s): 16.33 ± 10.57
Writhing response; versus model group
  Inhibition rate of writhing response (%): 19.7%

## Cc1ccc(-c2cc(CNC(=O)C3(C)CCC4(C)CCC5(C)C(=CC(=O)C6C7(C)CCC(O)C(C)(C)C7CCC65C)C4C3)on2)cc1 (stereo not shown) [Compound G2, N-[(3-p-methylphenyl-isoxazol-5-yl)methyl]-glycyrrhetinamide]
Swollen ear model
  Swelling degree of the swollen ear model (%) (x ± sd): 68.6 ± 29.5 %

## CC1(C(=O)NCc2cc(-c3ccc(F)cc3)no2)CCC2(C)CCC3(C)C(=CC(=O)C4C5(C)CCC(O)C(C)(C)C5CCC43C)C2C1 (stereo not shown) [Compound G3, N-[(3-p-fluorophenyl-isoxazol-5-yl)methyl]-glycyrrhetinamide]
Swollen ear model
  Swelling degree of the swollen ear model (%) (x ± sd): 60.8 ± 27.9 %

## COc1ccccc1-c1cc(CNC(=O)C2(C)CCC3(C)CCC4(C)C(=CC(=O)C5C6(C)CCC(O)C(C)(C)C6CCC54C)C3C2)on1 (stereo not shown) [Compound G6, N-[(3-o-methoxyphenyl-isoxazol-5-yl)methyl]-glycyrrhetinamide]
Swollen ear model
  Swelling degree of the swollen ear model (%) (x ± sd): 53.4 ± 35.2 %

## Cc1ccc(-c2cc(CNC(=O)[C@@]3(C)CC[C@]4(C)CC[C@]5(C)C(=CCC6[C@@]7(C)CC[C@H](O)C(C)(C)C7CC[C@]65C)[C@@H]4C3)on2)cc1 (stereo partly shown) [DG2, N-[(3-p-methylphenyl-isoxazol-5-yl)methyl]-11-deoxy-glycyrrhetinamide]
Swollen ear model
  Swelling degree of the swollen ear model (%) (x ± sd): 80.2 ± 18.8 %

## CC1(C(=O)NCc2cc(-c3ccc(F)cc3)no2)CCC2(C)CCC3(C)C(=CCC4C5(C)CCC(O)C(C)(C)C5CCC43C)C2C1 (stereo not shown) [DG3, N-[(3-p-fluorophenyl-isoxazol-5-yl)methyl]-11-deoxy-glycyrrhetinamide]
cough
  Cough occurrence (x ± sd): 17.70 ± 7.10
  Inhibition rate of cough (%): 36.33%
Writhing response
  Writhing occurrence (x ± s): 18.33 ± 13.56
Writhing response; versus model group
  Inhibition rate of writhing response (%): 9.8%
Swollen ear model
  Swelling degree of the swollen ear model (%) (x ± sd): 56.1 ± 28.3 %

## CC1(C)[C@@H](O)CC[C@]2(C)[C@H]3CC=C4[C@@H]5C[C@@](C)(C(=O)NCc6cc(-c7ccccc7Cl)no6)CC[C@]5(C)CC[C@@]4(C)[C@]3(C)CC[C@@H]12 [DG4, N-[(3-o-chlorophenyl-isoxazol-5-yl)methyl]-11-deoxy-glycyrrhetinamide]
cough
  Cough occurrence (x ± sd): 18.80 ± 7.04
  Inhibition rate of cough (%): 32.37%
Writhing response
  Writhing occurrence (x ± s): 6.56 ± 6.19
Writhing response; versus model group
  Inhibition rate of writhing response (%): 67.8%
Influenza virus A
  Death rate caused by the virus infection: decreased

## COc1ccccc1-c1cc(CNC(=O)C2(C)CCC3(C)CCC4(C)C(=CCC5C6(C)CCC(O)C(C)(C)C6CCC54C)C3C2)on1 (stereo not shown) [DG6, N-[(3-o-methoxyphenyl-isoxazol-5-yl)methyl]-11-deoxy-glycyrrhetinamide]
cough
  Cough occurrence (x ± sd): 22.60 ± 9.56
  Inhibition rate of cough (%): 18.71%
Writhing response
  Writhing occurrence (x ± s): 8.00 ± 6.48
Writhing response; versus model group
  Inhibition rate of writhing response (%): 60.7%
Swollen ear model
  Swelling degree of the swollen ear model (%) (x ± sd): 64.4 ± 29.2 %
[1]
  GPT: decreased

## Cc1cc(CNC(=O)C2(C)CCC3(C)CCC4(C)C(=CCC5C6(C)CCC(O)C(C)(C)C6CCC54C)C3C2)on1 (stereo not shown) [DG7, N-[(3-methyl-isoxazol-5-yl)methyl]-11-deoxy-glycyrrhetinamide]
cough
  Cough occurrence (x ± sd): 20.40 ± 14.31
  Inhibition rate of cough (%): 26.62%
Writhing response
  Writhing occurrence (x ± s): 15.78 ± 12.43
Writhing response; versus model group
  Inhibition rate of writhing response (%): 22.4%

## CC1(C(=O)NCc2cc(-c3cccc(Cl)c3)no2)CCC2(C)CCC3(C)C(=CCC4C5(C)CCC(O)C(C)(C)C5CCC43C)C2C1 (stereo not shown) [DG8, N-[(3-m-chlorophenyl-isoxazol-5-yl)methyl]-11-deoxy-glycyrrhetinamide]
cough
  Cough occurrence (x ± sd): 17.90 ± 8.21
  Inhibition rate of cough (%): 35.61%
Writhing response
  Writhing occurrence (x ± s): 15.89 ± 16.67
Writhing response; versus model group
  Inhibition rate of writhing response (%): 21.9%

## COc1ccccc1-c1cc(CNC(=O)[C@@]2(C)CC[C@]3(C)CC[C@]4(C)C(=CC(=O)[C@@H]5[C@@]6(C)CC[C@H](OC(C)=O)C(C)(C)[C@@H]6CC[C@]54C)[C@@H]3C2)on1 [RG1, N-[(3-o-methoxyphenyl-isoxazol-5-yl)methyl]-3-acetoxy-glycyrrhetinamide]
cough
  Cough occurrence (x ± sd): 17.64 ± 6.34
  Inhibition rate of cough (%): 36.55%

## CC(=O)Oc1ccccc1C(=O)O [aspirin, reference compound]
Writhing response
  Writhing occurrence (x ± s): 5.44 ± 5.87
Writhing response; Mus musculus, po, versus model group, read-out: Inhibition rate of writhing response (%)
  inhibition at 50 mg/kg: 73.2%

## COc1ccc2c3c1O[C@H]1[C@@H](O)C=C[C@H]4[C@@H](C2)N(C)CC[C@@]341 [codeine phosphate, reference compound]
cough
  Cough occurrence (x ± sd): 8.40 ± 8.95
cough; Mus musculus, po, read-out: Inhibition rate of cough (%)
  inhibition at 50 mg/kg: 69.8%

## C[C@@H]1C[C@H]2[C@@H]3CCC4=CC(=O)C=C[C@]4(C)[C@@]3(F)[C@@H](O)C[C@]2(C)[C@@]1(O)C(=O)CO [dexamethasone]
[2]
  Death in subacute toxicity test: All the animals died

## CC1(C)[C@@H](O)CC[C@]2(C)[C@H]3C(=O)C=C4[C@@H]5C[C@@](C)(C(=O)O)CC[C@]5(C)CC[C@@]4(C)[C@]3(C)CC[C@@H]12 [glycyrrhetinic acid]
[2]
  Death in subacute toxicity test: no death was observed
aldosterone; 300 mg/kg, n = 8
  Aldosterone level in blood plasma (ng/ml) (x ± sd): 68.3 ± 12.5 ng/mL
aldosterone
  Aldosterone-like effects (decrease of plasma aldosterone by negative feedback): confirmed the aldosterone-like effects

## C[C@]12CCC(=O)C=C1CC[C@@H]1[C@@H]2[C@@H](O)C[C@@]2(C)[C@H]1CC[C@]2(O)C(=O)CO [hydrocortisone, reference compound]
Swollen ear model
  Swelling degree of the swollen ear model (%) (x ± sd): 55.7 ± 35.4 %
